Results: patent publication US11254686B1 (Corvus Pharmaceuticals, Inc., priority 2017, dated 2022)

How the values were obtained:
[1] = Hepatocyte (Hep) intrinsic clearance, human; type: in vitro ADME; settings: hepatocytes
CYP3A4 = CYP3A4 (Homo sapiens (Human), UniProt P08684); experiment: CYP450 inhibition at 10 μM, CYP3A4; type: in vitro ADME; settings: human, 10 μM, read-out: CYP 450 % INH @ 10 μM
[2] = Hepatocyte (Hep) intrinsic clearance, rat; type: in vitro ADME; settings: hepatocytes
adenosine A2B receptor = adenosine A2B receptor (Homo sapiens (Human), UniProt P29275); experiment: Adenosine receptor activity assay (Table 1), A2B activity; type: biochemical; settings: for Ratio: A2A activity to A2B activity (A2A/A2B); for IC50: read-out: Ave A2B cAMP IC50
[3] = Liver microsome (LM) intrinsic clearance, human; type: in vitro ADME
[4] = Hepatocyte (Hep) intrinsic clearance, dog; type: in vitro ADME; settings: hepatocytes
[5] = Liver microsome (LM) intrinsic clearance, rat; type: in vitro ADME
CYP2D6 = CYP2D6 (Homo sapiens (Human), UniProt P10635); experiment: CYP450 inhibition at 10 μM, CYP2D6; type: in vitro ADME; settings: read-out: CYP 450 % INH @ 10 μM
adenosine A2A receptor = adenosine A2A receptor (Homo sapiens (Human), UniProt P29274); experiment: Adenosine receptor activity assay (Table 1), A2A activity; type: biochemical; settings: read-out: Ave A2A cAMP IC50
[6] = Hepatocyte (Hep) intrinsic clearance, monkey; type: in vitro ADME; settings: hepatocytes
adenosine A1 receptor [7] = molecular target: T1, adenosine A1 receptor (Homo sapiens (Human), UniProt P30542); experiment: A1 cAMP IC50 assay (Table 1); type: biochemical
adenosine A3 receptor [8] = molecular target: T2, adenosine A3 receptor (Homo sapiens (Human), UniProt P0DMS8); experiment: A3 cAMP IC50 assay (Table 1); type: biochemical
[9] = Liver microsome intrinsic clearance, human; type: in vitro ADME
adenosine A3 receptor [10] = molecular target: T2, adenosine A3 receptor; experiment: Adenosine receptor activity assay (Table 1), A3 cAMP; type: cell-based
adenosine A1 receptor [11] = molecular target: T1, adenosine A1 receptor; experiment: Adenosine receptor activity assay (Table 1), A1 cAMP; type: cell-based
[12] = Liver microsome intrinsic clearance, rat; type: in vitro ADME
[13] = Hepatocyte intrinsic clearance, human; type: in vitro ADME
[14] = Hepatocyte intrinsic clearance, rat; type: in vitro ADME
CYP 450 = experiment: CYP450 inhibition at 10 μM; type: in vitro ADME

Chain of CYP3A4 (P08684 whole entry): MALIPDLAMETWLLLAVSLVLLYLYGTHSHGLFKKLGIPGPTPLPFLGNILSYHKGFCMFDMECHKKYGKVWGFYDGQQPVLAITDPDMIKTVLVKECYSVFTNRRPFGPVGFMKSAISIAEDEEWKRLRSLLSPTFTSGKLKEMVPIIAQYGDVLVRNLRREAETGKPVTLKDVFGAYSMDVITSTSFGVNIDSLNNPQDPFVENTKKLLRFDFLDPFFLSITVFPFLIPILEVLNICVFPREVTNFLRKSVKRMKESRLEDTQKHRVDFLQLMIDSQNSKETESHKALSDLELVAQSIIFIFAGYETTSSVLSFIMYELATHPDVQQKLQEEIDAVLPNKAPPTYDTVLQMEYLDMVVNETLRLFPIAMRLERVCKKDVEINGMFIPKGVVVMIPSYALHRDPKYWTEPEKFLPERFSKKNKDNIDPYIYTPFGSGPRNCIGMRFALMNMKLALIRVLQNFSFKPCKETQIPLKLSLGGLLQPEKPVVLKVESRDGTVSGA
T2 sequence (P0DMS8 whole entry): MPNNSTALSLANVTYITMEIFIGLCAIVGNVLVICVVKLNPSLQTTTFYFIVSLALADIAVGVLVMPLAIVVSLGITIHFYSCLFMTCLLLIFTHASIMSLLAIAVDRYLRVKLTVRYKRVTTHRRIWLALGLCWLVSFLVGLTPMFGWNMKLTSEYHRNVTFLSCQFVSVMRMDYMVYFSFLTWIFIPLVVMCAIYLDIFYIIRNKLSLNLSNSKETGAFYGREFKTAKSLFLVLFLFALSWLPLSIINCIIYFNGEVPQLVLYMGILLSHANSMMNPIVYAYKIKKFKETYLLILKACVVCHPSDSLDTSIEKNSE
Chain of adenosine A2B receptor (P29275 whole entry): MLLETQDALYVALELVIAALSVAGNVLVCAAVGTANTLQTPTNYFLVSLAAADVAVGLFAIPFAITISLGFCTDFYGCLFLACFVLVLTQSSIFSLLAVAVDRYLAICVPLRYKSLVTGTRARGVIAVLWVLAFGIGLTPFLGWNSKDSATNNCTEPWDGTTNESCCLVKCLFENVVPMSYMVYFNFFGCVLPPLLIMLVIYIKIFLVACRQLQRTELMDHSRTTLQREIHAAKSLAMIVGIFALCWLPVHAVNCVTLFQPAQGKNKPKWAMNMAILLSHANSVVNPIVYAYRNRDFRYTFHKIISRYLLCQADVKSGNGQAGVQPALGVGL
T1 sequence (P30542 whole entry): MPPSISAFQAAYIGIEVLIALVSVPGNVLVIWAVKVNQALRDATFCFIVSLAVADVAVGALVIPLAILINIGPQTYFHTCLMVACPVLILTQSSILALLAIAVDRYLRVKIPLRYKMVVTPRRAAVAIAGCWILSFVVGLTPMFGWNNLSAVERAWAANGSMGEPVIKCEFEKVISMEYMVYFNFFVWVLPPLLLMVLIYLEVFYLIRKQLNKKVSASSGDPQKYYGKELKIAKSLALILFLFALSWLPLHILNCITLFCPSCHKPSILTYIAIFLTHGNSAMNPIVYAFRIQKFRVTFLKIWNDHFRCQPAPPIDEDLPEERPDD
Chain of CYP2D6 (P10635 whole entry): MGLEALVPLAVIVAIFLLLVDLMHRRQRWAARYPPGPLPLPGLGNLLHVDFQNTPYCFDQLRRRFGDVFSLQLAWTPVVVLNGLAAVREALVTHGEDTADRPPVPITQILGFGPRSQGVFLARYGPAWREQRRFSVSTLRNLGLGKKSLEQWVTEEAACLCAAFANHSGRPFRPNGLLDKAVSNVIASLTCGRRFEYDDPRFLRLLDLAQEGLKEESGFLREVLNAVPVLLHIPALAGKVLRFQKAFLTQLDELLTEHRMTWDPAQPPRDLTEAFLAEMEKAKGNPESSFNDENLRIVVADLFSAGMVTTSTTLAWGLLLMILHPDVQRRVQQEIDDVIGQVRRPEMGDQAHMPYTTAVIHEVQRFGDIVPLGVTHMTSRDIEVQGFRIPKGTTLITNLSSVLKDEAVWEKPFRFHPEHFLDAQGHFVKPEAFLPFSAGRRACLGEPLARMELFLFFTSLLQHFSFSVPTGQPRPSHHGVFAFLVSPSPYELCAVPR
Chain of adenosine A2A receptor (P29274 whole entry): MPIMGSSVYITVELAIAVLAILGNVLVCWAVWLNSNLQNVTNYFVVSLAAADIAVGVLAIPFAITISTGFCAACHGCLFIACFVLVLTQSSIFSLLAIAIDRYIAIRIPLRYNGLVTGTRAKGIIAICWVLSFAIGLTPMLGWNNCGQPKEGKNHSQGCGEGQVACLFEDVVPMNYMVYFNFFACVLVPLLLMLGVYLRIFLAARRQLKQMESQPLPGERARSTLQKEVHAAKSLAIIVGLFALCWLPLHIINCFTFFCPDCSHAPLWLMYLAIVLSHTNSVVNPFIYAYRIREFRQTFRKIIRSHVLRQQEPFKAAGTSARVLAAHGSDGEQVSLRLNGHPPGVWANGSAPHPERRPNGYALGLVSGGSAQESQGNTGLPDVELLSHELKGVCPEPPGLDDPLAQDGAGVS

hepatocyte CLint [1] [µL/min/1e6 cells]	inhibition at 10 µM (CYP3A4) [%]	hepatocyte CLint [2] [µL/min/1e6 cells]	Ratio (adenosine A2B receptor)	IC50 (adenosine A2B receptor) [nM]	LM CLint [3] [μL/min/mg/protein]	hepatocyte CLint [4] [µL/min/1e6 cells]	LM CLint [5] [μL/min/mg/protein]	inhibition at 10 µM (CYP2D6) [%]	IC50 (adenosine A2A receptor) [nM]	hepatocyte CLint [6] [µL/min/1e6 cells]	IC50 (adenosine A1 receptor [7]) [nM]	IC50 (adenosine A3 receptor [8]) [nM]	LM CLint [9] [μL/min/mg/protein]	IC50 (adenosine A3 receptor [10]) [nM]	IC50 (adenosine A1 receptor [11]) [nM]	LM CLint [12] [μL/min/mg/protein]	Hep CLint [13] [mL/min/10^6 cells]	Hep CLint [14] [mL/min/10^6 cells]	CYP 450 % INH @ 10 μM (CYP 450) [%]	Compound
6.53	0	26.7	7.99	< 10	16.29	46.1	15.05	8	50 to 100	17.9	> 500	> 500								C[C@H](Nc1nc(C(=O)N2CCCC2)c2sccc2n1)c1ccccn1 [Example Z10, (S)-(2-((1-(Pyridin-2-yl)ethyl)amino)thieno[3,2-d]pyrimidin-4-yl)(pyrrolidin-1-yl)methanone]
3.48	35	34.7	39.41	50 to 100	4.55	2.59	9.33	11	> 500	0.62	> 500	> 500								C[C@H](Nc1nc(C(=O)N2CC[C@H](O)C2)c2sccc2n1)c1cccnc1 [Example Z28, ((S)-3-Hydroxypyrrolidin-1-yl)(2-(((S)-1-(pyridin-3-yl)ethyl)amino)thieno[3,2-d]pyrimidin-4-yl)methanone]
12.7	7	45.3	5.74	< 10	11.20	41.7	11.87	0	10 to 50	18.7	> 500	> 500								C[C@H](Nc1nc(C(=O)N2CC[C@@H](F)C2)c2sccc2n1)c1ccccn1 [Example Z52, ((R)-3-Fluoropyrrolidin-1-yl)(2-(((S)-1-(pyridin-2-yl)ethyl)amino)thieno[3,2-d]pyrimidin-4-yl)methanone]
2.21	0	4.46	15.14	50 to 100	5.60	1.73	0.0	10	> 500	0.19	> 500	> 500								C[C@H](Nc1nc(C(=O)N2CC[C@H](O)C2)c2sccc2n1)c1ccccn1 [Example Z58, ((S)-3-Hydroxypyrrolidin-1-yl)(2-(((S)-1-(pyridin-2-yl)ethyl)amino)thieno[3,2-d]pyrimidin-4-yl)methanone]
			3.05	< 10					10 to 50				10.94	50 to 100	> 500	57.04				CO[C@@H]1CCN(C(=O)c2nc(N[C@@H](C)c3ccccn3)nc3cc(C)sc23)C1 [Example Z312, ((R)-3-Methoxypyrrolidin-1-yl)(6-methyl-2-(((S)-1-(pyridin-2-yl)ethyl)amino)thieno[3,2-d]pyrimidin-4-yl)methanone]
			200.00	< 10					> 500				10.36	> 500	> 500	33.31				Cc1cc2nc(N[C@@H](C)c3cccnc3)nc(C(=O)N3CC[C@@H](CO)C3)c2s1 [Example Z335, ((R)-3-(Hydroxymethyl)pyrrolidin-1-yl)(6-methyl-2-(((S)-1-(pyridin-3-yl)ethyl)amino)thieno[3,2-d]pyrimidin-4-yl)methanone]
			120.82	10 to 50					> 500				20.68	> 500	> 500	13.69				C[C@H](Nc1nc(C(=O)N2CC[C@@H](O)C2)c2sc(C(F)(F)F)cc2n1)c1cccnc1 [Example Z337, ((R)-3-Hydroxypyrrolidin-1-yl)(2-(((S)-1-(pyridin-3-yl)ethyl)amino)-6-(trifluoromethyl)thieno[3,2-d]pyrimidin-4-yl)methanone]
			95.47	< 10					100 to 500				258.52	> 500	> 500	504.21				C[C@H](Nc1nc(C(=O)NCCc2ccc(O)cc2)c2sccc2n1)c1cncc(F)c1 [Example Z340, (S)-2-((1-(5-Fluoropyridin-3-yl)ethyl)amino)-N-(4-hydroxyphenethyl)thieno[3,2-d]pyrimidine-4-carboxamide]
			288.73	< 10					> 500				12.73	> 500	> 500	7.73				C[C@H](Nc1nc(C(=O)N2CC[C@@H](O)C2)c2sc(C(F)(F)F)cc2n1)c1cncc(F)c1 [Example Z391, (2-(((S)-1-(5-Fluoropyridin-3-yl)ethyl)amino)-6-(trifluoromethyl)thieno[3,2-d]pyrimidin-4-yl)((R)-3-hydroxypyrrolidin-1-yl)methanone]
			149.76	< 10					> 500					> 500	> 500		1.64	5.95	19.6	(6-Amino-2-(((S)-1-(5-fluoropyridin-3-yl)ethyl)amino)thieno[3,2-d]pyrimidin-4-yl)((S)-3-hydroxypyrrolidin-1-yl)methanone [Example Z212]
